Laboratory results published in article PMC12504763, “Antiproliferation, 3D-multicellular spheroid and VEGFR-2 inhibitory properties of spiroindolin-2-ones with phosphonate function” (Scientific Reports, 2025).
Values joined by “and” are separate entries in the source; they are usually repeats but may differ in a detail not shown here. Identical values can stand only once. Like-named read-outs stand apart in the source and are kept apart here.

Assays:
[1] = system: HCT116 3D-spheroid; conditions: HCT116 3D-spheroid at 50 μM, relative to control
[2] = molecular target: T1, COX-2 (Homo sapiens, UniProt P35354); experiment: biochemical; conditions: for inhibition at 10 µM: 3 replicates, read-out: % Inhibition of COX-2 ± SEM; for SI (selectivity index, COX-2/COX-1): at 10 μM
T1 construct: purchased BioVision incorporated USA K548–100
T1 sequence (P35354 18-604): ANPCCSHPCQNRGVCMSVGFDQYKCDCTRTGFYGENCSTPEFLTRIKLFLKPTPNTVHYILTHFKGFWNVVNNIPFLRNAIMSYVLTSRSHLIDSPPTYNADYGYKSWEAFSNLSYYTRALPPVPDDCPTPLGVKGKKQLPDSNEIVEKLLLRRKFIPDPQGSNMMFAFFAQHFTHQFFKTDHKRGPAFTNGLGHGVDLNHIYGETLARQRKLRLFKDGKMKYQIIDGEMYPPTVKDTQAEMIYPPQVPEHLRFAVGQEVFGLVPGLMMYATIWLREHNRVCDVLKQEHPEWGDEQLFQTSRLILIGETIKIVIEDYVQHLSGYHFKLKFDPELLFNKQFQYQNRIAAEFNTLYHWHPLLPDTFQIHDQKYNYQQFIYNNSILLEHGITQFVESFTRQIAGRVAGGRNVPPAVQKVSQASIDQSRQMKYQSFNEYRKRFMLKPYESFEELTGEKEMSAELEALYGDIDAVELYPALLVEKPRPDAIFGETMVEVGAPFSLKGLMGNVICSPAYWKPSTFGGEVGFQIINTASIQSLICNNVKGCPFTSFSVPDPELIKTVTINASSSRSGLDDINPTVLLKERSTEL

[3] = system: MCF7 (breast) cancer cell line; experiment: 2D-monolayer antiproliferation (MTT) against MCF7; format: cell-based, human; conditions: for IC50: Homo sapiens, MTT, 72 h incubation, MCF7 breast, read-out: IC50, μM ± SEM MCF7; for SI (selectivity index) MCF7: IC50 of RPE1 normal cell/IC50 of MCF7
[4] = molecular target: T2, VEGFR-2 (Homo sapiens, UniProt P35968); experiment: cell-based; format: cell-based; conditions: for inhibition at 10 µM: MCF7; for VEGFR-2 pg/mL ± SEM MCF7: at 10 μM, control 258.70 ± 2.3
T2 construct: endogenous in cells; host or cells: HCT116, PaCa2, MCF7 (human cancer cell lines, ATCC origin)
T2 sequence (P35968 20-1356): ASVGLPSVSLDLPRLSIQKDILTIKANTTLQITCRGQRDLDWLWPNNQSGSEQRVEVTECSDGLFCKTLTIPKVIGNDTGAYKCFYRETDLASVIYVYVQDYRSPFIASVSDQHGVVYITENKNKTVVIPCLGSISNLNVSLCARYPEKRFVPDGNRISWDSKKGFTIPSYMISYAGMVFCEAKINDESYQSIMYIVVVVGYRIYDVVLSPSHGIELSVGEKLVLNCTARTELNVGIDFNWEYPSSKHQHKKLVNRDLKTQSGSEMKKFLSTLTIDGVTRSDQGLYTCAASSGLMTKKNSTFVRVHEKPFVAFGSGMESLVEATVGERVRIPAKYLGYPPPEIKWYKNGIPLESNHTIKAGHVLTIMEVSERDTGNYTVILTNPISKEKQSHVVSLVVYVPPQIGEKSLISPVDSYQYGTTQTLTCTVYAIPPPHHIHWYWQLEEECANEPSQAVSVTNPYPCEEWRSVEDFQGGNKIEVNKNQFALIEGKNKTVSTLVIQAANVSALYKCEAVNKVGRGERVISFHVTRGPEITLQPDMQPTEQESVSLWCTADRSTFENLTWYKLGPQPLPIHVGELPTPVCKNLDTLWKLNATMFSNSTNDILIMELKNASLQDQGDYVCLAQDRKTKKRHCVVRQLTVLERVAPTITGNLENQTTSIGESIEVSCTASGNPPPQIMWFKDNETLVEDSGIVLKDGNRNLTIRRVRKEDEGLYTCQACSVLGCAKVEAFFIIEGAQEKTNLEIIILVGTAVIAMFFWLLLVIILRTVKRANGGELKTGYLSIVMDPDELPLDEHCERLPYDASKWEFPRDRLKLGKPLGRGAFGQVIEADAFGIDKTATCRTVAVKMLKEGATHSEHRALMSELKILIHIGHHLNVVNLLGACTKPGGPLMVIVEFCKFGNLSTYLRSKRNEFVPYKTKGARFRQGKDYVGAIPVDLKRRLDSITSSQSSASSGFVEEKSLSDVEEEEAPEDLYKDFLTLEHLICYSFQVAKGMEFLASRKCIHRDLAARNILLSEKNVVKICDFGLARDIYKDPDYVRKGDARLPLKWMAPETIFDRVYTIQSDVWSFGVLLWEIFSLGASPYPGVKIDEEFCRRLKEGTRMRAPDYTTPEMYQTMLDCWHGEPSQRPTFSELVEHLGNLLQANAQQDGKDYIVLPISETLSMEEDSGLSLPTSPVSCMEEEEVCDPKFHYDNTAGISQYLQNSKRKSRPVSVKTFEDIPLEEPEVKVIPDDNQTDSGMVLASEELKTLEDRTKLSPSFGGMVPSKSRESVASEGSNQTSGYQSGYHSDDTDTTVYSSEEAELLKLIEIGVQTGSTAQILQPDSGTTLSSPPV

[5] = system: RPE1 (normal human immortalized retinal pigment epithelial cell line); experiment: cells; format: cell-based; conditions: Homo sapiens, RPE-1; MTT, normal RPE1 cell; read-out: IC50, μM ± SEM RPE1
[6] = system: HCT116 (colon) cancer cell line; experiment: 2D-monolayer antiproliferation (MTT) against HCT116; format: cell-based, human; conditions: for IC50: Homo sapiens, HCT-116; for SI (selectivity index) HCT116: IC50 of RPE1 normal cell/IC50 of HCT116
[7] = molecular target: T3, COX-1 (Ovis aries, UniProt P05979); experiment: biochemical; conditions: 3 replicates, read-out: % Inhibition of COX-1 ± SEM
T3 construct: purchased BioVision incorporated USA K548–100
T3 sequence (P05979 25-600): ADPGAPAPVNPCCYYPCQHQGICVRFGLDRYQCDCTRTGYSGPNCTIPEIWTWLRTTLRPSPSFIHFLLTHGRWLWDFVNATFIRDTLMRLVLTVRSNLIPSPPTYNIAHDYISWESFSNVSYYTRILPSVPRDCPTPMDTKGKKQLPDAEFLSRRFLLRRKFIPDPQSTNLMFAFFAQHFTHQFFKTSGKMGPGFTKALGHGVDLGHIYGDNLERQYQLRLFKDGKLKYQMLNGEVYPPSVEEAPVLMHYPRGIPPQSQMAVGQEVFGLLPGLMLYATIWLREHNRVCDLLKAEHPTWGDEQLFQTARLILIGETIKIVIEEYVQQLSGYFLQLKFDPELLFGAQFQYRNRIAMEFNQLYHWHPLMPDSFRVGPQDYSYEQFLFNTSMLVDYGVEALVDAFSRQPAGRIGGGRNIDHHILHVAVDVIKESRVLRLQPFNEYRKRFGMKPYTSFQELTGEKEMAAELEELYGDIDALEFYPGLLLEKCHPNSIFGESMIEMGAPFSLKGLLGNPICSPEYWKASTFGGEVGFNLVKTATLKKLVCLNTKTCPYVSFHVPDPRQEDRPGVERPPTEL

[8] = system: TNF-α; experiment: TNF-α inhibitory properties (ELISA), MCF7 cell lysate; format: cell-based, human; conditions: at 10 μM; for TNF-α pg/mL (± SEM) MCF7: control 83.26 ± 1.1
[9] = molecular target: T2, VEGFR-2; experiment: cell-based; format: cell-based; conditions: for inhibition at 10 µM: PaCa-2, PaCa2; for VEGFR-2 pg/mL ± SEM PaCa2: at 10 μM, control 326.80 ± 1.9
[10] = system: A549 (lung) cancer cell line; experiment: 2D-monolayer antiproliferation (MTT) against A549; format: cell-based, human; conditions: for IC50: Homo sapiens, MTT, 72 h incubation, A549 lung, read-out: IC50, μM ± SEM A549; for SI (selectivity index) A549: IC50 of RPE1 normal cell/IC50 of A549
[11] = system: TNF-α; experiment: TNF-α inhibitory properties (ELISA), HCT116 cell lysate; format: cell-based, human; conditions: at 10 μM; for TNF-α pg/mL (± SEM) HCT116: control 95.74 ± 0.5
[12] = system: TNF-α; experiment: TNF-α inhibitory properties (ELISA), PaCa2 cell lysate; format: cell-based, human; conditions: at 10 μM; for TNF-α pg/mL (± SEM) PaCa2: control 111.8 ± 2.0
[13] = molecular target: T2, VEGFR-2; experiment: cell-based; format: cell-based; conditions: for inhibition at 10 µM: HCT-116, HCT116; for VEGFR-2 pg/mL ± SEM HCT116: at 10 μM, control 317.80 ± 3.5
[14] = system: PaCa2 (pancreatic) cancer cell line; experiment: 2D-monolayer antiproliferation (MTT) against PaCa2; format: cell-based, human; conditions: for 1/(observed property): 1/observed IC50 (μM), PaCa2; for IC50: Homo sapiens, PaCa-2, MTT, 72 h incubation, PaCa2 pancreatic, read-out: IC50, μM ± SEM PaCa2; for SI (selectivity index) PaCa2: IC50 of RPE1 normal cell/IC50 of PaCa2
[15] = system: CAM blood vessel network; experiment: Chick chorioallantoic membrane (CAM) anti-angiogenic assay; format: in vivo, chicken; conditions: 20 μL of 660 μM, 3 days; for Diameter of blood vessel (μm ± SEM): CAM test, control 459.7 ± 13.8
Protocol: CAM assay is an established xenograft technique for investigating the angiogenic effect due to the high resemblance of the human vascularized epithelium basement membrane with that of the chorioallantoic layer containing mainly type IV collagen[84]–[86].
Fig. 10 Images of light microscopy for anti-angiogenic evaluation of the tested compounds using CAM assay. […] The glass slide was placed on the surface of the CAM blood vessel network and left in an incubator at 37 °C for 3 days. The CAM blood vessel network was carefully cut and imaged under a light microscope (40 × magnification).
Fertilized white chicken eggs were incubated in a 37 °C incubator with constant humidity. On day 8, a small squared window was opened allowing the detachment of the growing CAM and shell. The opening was covered with an elastic bandage. […] The CAM was then sealed with a bandage and placed back in the incubator. CAMs were examined daily until day 12 (3 days), the vascularized membranes were then cut around the glass slide and fixed in 5% formalin. Images were taken with an Evos microscope at 40x and 100x magnification^9. Main blood vessel in the microscopic images of controls and samples were quantified by imageJ and analyzed for significant differences (n = 4).

[16] = MTT, 72 h incubation, HCT116 colon, read-out: IC50, μM ± SEM HCT116
[17] = log of observed IC50 (μM), HCT116, read-out: Log(observed property) (converted)

Structure (SMILES)	%CT (± SEM), percentage cytotoxicity [1]	inhibition at 10 µM [2]	IC50 [3]	SI (selectivity index) MCF7 [3]	inhibition at 10 µM [4]	VEGFR-2 pg/mL ± SEM MCF7 [4]	IC50 [5]	IC50 [6, 16]	IC50 [6, 17]	SI (selectivity index) HCT116 [6]	inhibition at 10 µM [7]	TNF-α % inhibition MCF7 [8]	TNF-α pg/mL (± SEM) MCF7 [8]	inhibition at 10 µM [9]	VEGFR-2 pg/mL ± SEM PaCa2 [9]	IC50 [10]	SI (selectivity index) A549 [10]	TNF-α pg/mL (± SEM) HCT116 [11]	TNF-α pg/mL (± SEM) PaCa2 [12]	inhibition at 10 µM [13]	further results
CCOP(=O)(OCC)N1C/C(=C\c2ccc(Cl)cc2)C(=O)C2(C1)C(c1ccc(Cl)cc1)CN(C)C21C(=O)Nc2ccc(C)cc21 (stereo not shown) [Compound 17k, Diethyl (E)-(5′′-(4-chlorobenzylidene)-4′-(4-chlorophenyl)-1′,5-dimethyl-2,4′′-dioxodispiro[indoline-3,2′-pyrrolidine-3′,3′′-piperidin]-1′′-yl)phosphonate]	53.1% and 53.1 ± 2.2%	55 ± 1.6%	4.98 ± 0.095 µM	1.6	66.6%	86.40 ± 0.5 pg/mL	8.15 ± 0.507 µM	3.281 ± 0.022 µM	3.28 µM	2.5	57.7 ± 1%	72.6%	22.85 ± 1.8 pg/mL	76.6%	76.40 ± 0.9 pg/mL	6.47 ± 0.385 µM	1.3	26.48 ± 1.5 pg/mL	24.3 ± 1.4 pg/mL	78.7%	VEGFR-2 pg/mL ± SEM HCT116 [13]: 67.80 ± 1.3 pg/mL; 1/(observed property) [14]: 0.1502; IC50 [14]: 6.66 ± 0.095 µM; SI (selectivity index) PaCa2 [14]: 1.2
CCOP(=O)(OCC)N1C/C(=C\c2ccccc2)C(=O)C2(C1)C(c1ccccc1)CN(C)C21C(=O)Nc2ccc(C)cc21 (stereo not shown) [Compound 17d, Diethyl (E)-(5′′-benzylidene-1′,5-dimethyl-2,4′′-dioxo-4′-phenyldispiro[indoline-3,2′-pyrrolidine-3′,3′′-piperidin]-1′′-yl)phosphonate]	64.1% and 64.1 ± 7.0%	56.4 ± 1.9%	5.78 ± 0.13 µM	3.1	71.9%	72.80 ± 1.2 pg/mL	17.9 ± 0.945 µM	9.278 ± 0.084 µM	9.28 µM	1.9	51.8 ± 2.2%	0.1%	83.2 ± 4.5 pg/mL	83.7%	53.42 ± 0.7 pg/mL	14.6 ± 0.27 µM	1.2	94.80 ± 2.5 pg/mL	103.7 ± 4.2 pg/mL	72.5%	SI (selectivity index, COX-2/COX-1) [2]: 0.82; TNF-α % inhibition HCT116 [11]: 1.0%; TNF-α % inhibition PaCa2 [12]: 7.2%; VEGFR-2 pg/mL ± SEM HCT116 [13]: 87.40 ± 1.9 pg/mL; 1/(observed property) [14]: 0.06423; IC50 [14]: 15.6 ± 0.329 µM; SI (selectivity index) PaCa2 [14]: 1.2
CCOP(=O)(OCC)N1C/C(=C\c2cccs2)C(=O)C2(C1)C(c1cccs1)CN(C)C21C(=O)Nc2ccc(Cl)cc21 (stereo not shown) [Compound 17s, Diethyl (E)-[5-chloro-1′-methyl-2,4′′-dioxo-4′-(thiophen-2-yl)-5′′-(thiophen-2-ylmethylene)dispiro[indoline-3,2′-pyrrolidine-3′,3′′-piperidin]-1′′-yl]phosphonate]	77.9% and 77.9 ± 1.2%	56.3 ± 2.3%	4.64 ± 0.068 µM	2.2	81.6%	47.60 ± 0.6 pg/mL	10.2 ± 0.545 µM	5.42 ± 0.288 µM	5.42 µM	1.9	53.8 ± 2.8%	1.9%	81.64 ± 3.7 pg/mL	91.9%	26.50 ± 0.5 pg/mL	8.1 ± 0.091 µM	1.3	86.57 ± 2.0 pg/mL	90.6 ± 2.8 pg/mL	83.1%	SI (selectivity index, COX-2/COX-1) [2]: 0.83; % Inhibition of the blood vessels in CAM test [15]: 86.7%; Diameter of blood vessel (μm ± SEM) [15]: 61.3 ± 4.3 μm; TNF-α % inhibition HCT116 [11]: 9.6%; TNF-α % inhibition PaCa2 [12]: 19.0%; VEGFR-2 pg/mL ± SEM HCT116 [13]: 53.80 ± 0.9 pg/mL; 1/(observed property) [14]: 0.163; IC50 [14]: 6.13 ± 0.131 µM; SI (selectivity index) PaCa2 [14]: 1.7
CCOP(=O)(OCC)N1C/C(=C\c2ccc(OC)cc2)C(=O)C2(C1)C(c1ccc(OC)cc1)CN(C)C21C(=O)Nc2ccccc21 (stereo not shown) [Compound 17p, Diethyl (E)-[5′′-(4-methoxybenzylidene)-4′-(4-methoxyphenyl)-1′-methyl-2,4′′-dioxodispiro[indoline-3,2′-pyrrolidine-3′,3′′-piperidin]-1′′-yl]phosphonate]	68.3% and 68.3 ± 0.6%	53.5 ± 2.1%	5.43 ± 0.14 µM	2.6	81.3%	48.30 ± 0.4 pg/mL	14.2 ± 0.638 µM	5.51 ± 0.138 µM	5.51 µM	2.6	51.1 ± 2.7%	65.7%	28.56 ± 2.9 pg/mL	93.3%	21.76 ± 0.4 pg/mL	13 ± 0.284 µM	1.1	26.21 ± 1.3 pg/mL	25.8 ± 1.8 pg/mL	90%	SI (selectivity index, COX-2/COX-1) [2]: 1.10; Diameter of blood vessel (μm ± SEM) [15]: 79.3 ± 3.3 μm; VEGFR-2 pg/mL ± SEM HCT116 [13]: 31.80 ± 0.8 pg/mL; 1/(observed property) [14]: 0.1367; IC50 [14]: 7.32 ± 0.226 µM; SI (selectivity index) PaCa2 [14]: 1.9
